# Laboratory results as given in BindingDB's records for patent US20240158355 (Baylor College of Medicine, 2024).
# How the values were obtained:
# [1] = target: T1, Bromodomain testis-specific protein [287-359] (Homo sapiens, UniProt Q58F21); experiment: AlphaScreen Assay
# T1 construct: 287-359
# Source text: (§1) No details are given.
# [2] = target: T2, Bromodomain testis-specific protein [44-116] (UniProt Q58F21); experiment: AlphaScreen Assay
# T2 construct: 44-116
# Source text: as §1
smiles,measurement,setting,value
"Cc1cc(N)ccc1-c1nn(C)c2ccc(-c3cncnc3)cc12 [US20240158355, Compound 76]",IC50,[1],9.48 µM
same,IC50,[2],5.44 µM
